From patent publication US5760036A, “Aminediol protease inhibitors” (E. R. Squibb & Sons, Inc., priority 1995, dated 1998)

molecular target: T1, HIV protease (Human immunodeficiency virus type 1 group M subtype B, UniProt P04585); assay: HIV Protease Assay; assay type: biochemical; settings: 10 μM inhibitor, 4% DMSO, 450 μM substrate, pH 5.5, 30 minutes at 37° C., RP-HPLC
T1 construct: and purified protease
Method: An HIV protease standard assay was performed in a 60 μl reaction medium containing 50 mM sodium acetate, pH 5.5, 100 μg/ml bovine serum albumen,450 μM substrate (H2 N-Val-Ser-Gln-Asn-(β-naphthyl-alanine)-Pro-Val-Ile-OH), and purified protease. The reaction medium was incubated for 30 minutes at 37° C., quenched by the addition of 140 μl 5% H3 PO4, then analyzed by reverse phase HPLC using UV220 detection. In a typical control assay, 7% of the substrate was hydrolyzed. Aminediol inhibitors of the present invention, listed in the following Table 1, were then employed in the assay, for which purpose they were prepared as a […] solution in DMSO, then diluted to 30 μM with 50 mM sodium acetate/bovine serum albumen. This working stock was then diluted three-fold into the protease reaction medium, for a final concentration of 10 μM inhibitor and 4% DMSO.

Row | HIV Protease % Inhibition at 10 μM [%] | Structure (SMILES)
1 | 89 | CC(C)(C)OC(=O)N[C@@H](Cc1ccccc1)[C@H](O)CNC[C@@H](O)[C@H](Cc1ccccc1)NC(=O)C(C)(O)c1ccccn1 (single isomer, unassigned; isomer b) [Compound 382, [1S-[1R*,2S*(2S*, 3R*)]]-[2-Hydroxy-3-[[2-hydroxy-3-[[2-hydroxy-1-oxo-2-(2-pyridinyl)propyl]amino]-4-phenylbutyl]amino]-1-(phenylmethyl)propyl]carbamic acid, 1.1-dimethylethyl ester, isomer B]
2 | 85 | COC(=O)NC(C)(C(=O)N[C@@H](Cc1ccccc1)[C@H](O)CNC[C@@H](O)[C@H](Cc1ccccc1)NC(=O)OC(C)(C)C)C(C)(C)C (single isomer, unassigned; isomer a) [Compound 373]
3 | 98 | CC(C)(C)OC(=O)N[C@@H](Cc1ccccc1)[C@H](O)CNC[C@@H](O)[C@H](Cc1ccccc1)NC(=O)C1(O)CCCCC1(C)C (single isomer, unassigned; isomer b) [Compound 362, [1S-[1R*,2S*(2S*,3R*)]]-[3-[[3-[[2,2-Dimethyl-1-hydroxycyclohexyl)carbonyl]amino]-2-hydroxy-4-phenylbutyl]amino]-2-hydroxy-1-(phenylmethyl) propyl]carbamic acid, 1,1-dimethylethyl ester, isomer B]

Row | Structure (SMILES) | HIV Protease % Inhibition at 10 μM [%]
4 | CC(C)(C)OC(=O)N[C@@H](Cc1ccccc1)[C@H](O)CNC[C@@H](O)[C@H](Cc1ccccc1)NC(=O)C1(O)CCc2ccccc21 (single isomer, unassigned; isomer a) [Compound 375, [1S-[1R*,2S*(2S*, 3R*)]]-[3-[[3-]](2,3-Dihydro-1-hydroxy-1H-inden-1-yl)carbonyl]amino]-2-hydroxy-4-phenylbutyl]amino]-2-hydroxy-1-(phenylmethyl)-propyl]carbamic acid, 1,1-dimethylethyl ester, isomer A] | 98

same assay, conditions: pH 5.5, 10 μM inhibitor, 4% DMSO, 450 μM substrate, pH 5.5, 30 minutes at 37° C., RP-HPLC; read-out: HIV Protease % Inhibition at 10 μM

Row | inhibition at 10 µM [%] | Structure (SMILES)
5 | 94 | CC(C)(C)OC(=O)N[C@@H](Cc1ccccc1)[C@H](O)CNC[C@@H](O)[C@H](Cc1ccccc1)NC(=O)OCc1ncc[nH]1 [Compound 268, [R-(R*,S*)]-[Iminobis[2-hydroxy-1-(phenylmethyl)-3,1-propanediyl)]biscarbamic acid, (1H-imidazol-2-yl)-methyl 1,1-dimethylethyl ester]
6 | 89 | CC(C)(C)OC(=O)N[C@@H](Cc1ccccc1)[C@H](O)CNC[C@@H](O)[C@H](Cc1ccccc1)NC(=O)[C@@H](O)C(C)(C)C [Compound 335, [1S-[1R*,2S*[2S*,3R*(R*)]]]-[3-[[3-[(2-Hydroxy-3,3-dimethyl-1-oxobutyl)amino]-2-hydroxy-4-phenylbutyl]amino]-2-hydroxy-1-(phenylmethyl)propyl]carbamic acid, 1,1-dimethylethyl ester]
7 | 71 | CC(C)(C)OC(=O)N[C@@H](Cc1ccccc1)[C@H](O)CNC[C@@H](O)[C@H](Cc1ccccc1)NC(=O)C(OCc1ccccc1)C(C)(C)C (stereo partly drawn) [Compound 106, [1S-[1R*,2S* (2S*,3R*)]]-3-[[3-[[3,3-Dimethyl-1-oxo-2-(phenylmethoxy)butyl)butyl]amino]-2-hydroxy-4-phenylbutyl]amino]-2-hydroxy-1-(phenyl-methyl)propyl]carbamic acid, 1,1-dimethylethyl ester]
8 | 56 | COC(=O)N[C@@H](C(=O)N[C@@H](Cc1ccccc1)[C@H](O)CNC[C@@H](O)[C@H](Cc1ccccc1)NC(=O)OC(C)(C)C)C(C)(C)C (relative stereo) [Compound 340, [1S*,2R*(2R*,3S*)]-N-[3-[[3-[[(1,1-Dimethylethoxy)carbonyl]amino]-2-hydroxy-4-phenylbutyl]amino]-2-hydroxy-1-(phenylmethyl)propyl]-N^2-(2-methoxycarbonyl)-3-methyl-D-valinamide]
9 | 46 | CC(C)(C)OC(=O)N[C@@H](Cc1ccccc1)[C@H](O)CNC[C@@H](O)[C@H](Cc1ccccc1)NC(=O)NCc1ccccc1 (relative stereo) [Compound 57, [1R*,2S*(2S*,3R*)]-[2-Hydroxy-3[[2-hydroxy-4-phenyl-3-[[[(phenylmethyl)amino]-carbonyl]amino]butyl]amino]-1-(phenylmethyl)-propyl]carbamic acid, 1,1-dimethylethyl ester]
10 | 98 | CCc1ccccc1CC(NC(=O)OC(C)(C)C)C(O)CNCC(O)C(Cc1ccccc1)NC(=O)OC(C)(C)C (stereo not drawn) [Compound 371]
11 | 0 | CC(C)(C)OC(=O)N[C@@H](Cc1ccccc1)C(=O)CN(Cc1ccccc1)CC(O)[C@H](Cc1ccccc1)NC(=O)OC(C)(C)C (stereo partly drawn) [Compound 195, [1S-[1R*(3R*)]]-[3-[[3-[[(1,1-Dimethylethoxy)carbonyl]amino]-2-hydroxy-4-phenylbutyl]-(phenylmethyl)amino]-2-oxo-1-(phenylmethyl)propyl]-carbamic acid, 1,1-dimethylethyl ester]
12 | 58 | CC(C)[C@H](NC(=O)OCc1ccccc1)C(=O)N[C@@H](Cc1ccccc1)[C@@H](O)CNC[C@@H](O)[C@H](Cc1ccccc1)NC(=O)OC(C)(C)C [Compound 115, [S-[1R*,2R*(2S*.3R*)]-N-[3-[[3-[[(1,1-Dimethylethoxy)carbonyl]amino]-2-hydroxy-4-phenylbutyl]amino]-2-hydroxy-1-phenylmethyl)propyl]-N^2-[(phenylmethoxy)-carbonyl]-L-valinamide]
13 | 10 | CC(C)[C@H](NC(=O)OCc1ccccc1)C(=O)N[C@@H](Cc1ccccc1)[C@@H](O)CNC[C@H](O)[C@H](Cc1ccccc1)NC(=O)[C@@H](NC(=O)OCc1ccccc1)C(C)C [Compound 119, [S-(1R*,2R*)]-N,N'-[Iminobisr[2-hydroxy-1-(phenylmethyl)-3,1-propanediyl]]bis[N^2-[phenylmethyloxy)carbonyl]-L-valinamidel]
14 | 99 | CC(C)[C@@H](NC(=O)NCc1nc2ccccc2[nH]1)C(=O)N[C@@H](Cc1ccccc1)[C@H](O)CNC[C@@H](O)[C@H](Cc1ccccc1)NC(=O)OC(C)(C)C (relative stereo) [Compound 274, [1S*,2R*(2R*,3S*)]-N^2-[[(1H-Benzimidazol-2-ylmethyl)amino]carbonyl]-N-[3-[[3-[[(1,1-dimethylethoxy)carbonyl]amino]-2-hydroxy-4-phenylbutyl]amino]-2-hydroxy-1-(phenylmethyl)propyl]-D-valinamide]
15 | 1 | CC(C)(C)OC(=O)N1Cc2ccccc2C[C@H]1[C@H](O)CNC[C@H](O)[C@@H]1Cc2ccccc2CN1C(=O)OC(C)(C)C [Compound 12, [S-(R*,R*)]-3-[2-[[[-(R*,S*)]-2-[2-[(1,1-Dimethylethoxy)carbonyl]-1,2,3,4-tetrahydro-3-isoquinolinyl]-2-hydroxyethyl]amino]-1-hydroxyethyl]-3,4-dihydro-2(1H)-isoquinolinecarboxylic acid, (1,1-dimethylethyl) ester]
16 | 21 | CC(C)[C@H](N)C(=O)N[C@@H](Cc1ccccc1)[C@H](O)CNC[C@@H](O)[C@H](Cc1ccccc1)NC(=O)[C@@H](N)C(C)C [Compound 43, [S-(1S*,2R*)]-N,N'-[Iminobis[2-hydroxy-1-(phenylmethyl)-3,1-propanediyl]]bis-L-valinamide]
17 | 67 | CC(C)(C)OC(=O)N[C@@H](Cc1ccccc1)[C@H](O)CNC[C@@H](O)[C@H](Cc1ccccc1)NC(=O)OC(CO)c1cccnc1 (stereo partly drawn) [Compound 277, [R-(R*,S*)]-[Iminobis[2-hydroxy-1-(phenylmethyl)-3,1-propanediyl)]biscarbamic acid, 1,1-dimethylethyl-2-hydroxy-1-(3-pyridinyl)ethyl ester]
18 | 99 | COC(=O)N[C@H](C(=O)N[C@@H](Cc1ccccc1)[C@H](O)CNC[C@@H](O)[C@H](Cc1ccccc1)NC(=O)[C@](C)(O)C(C)(C)C)C(C)(C)C (relative stereo) [Compound 383, [1R*,2S*[2S*, 3R*(S*)]]-N-[2-Hydroxy-3-[[2-hydroxy-3-[(2-hydroxy-2,3,3-trimethyl-1-oxobutyl)amino]-4-phenylbutyl]amino]-1-(phenylmethyl)propyl]-N^2-(2-methoxycarbonyl)-3-methyl-L-valinamide]
19 | 19 | O=C(Cc1ccccc1)N[C@@H](Cc1ccccc1)[C@H](O)CNC[C@@H](O)[C@H](Cc1ccccc1)NC(=O)Cc1ccccc1 [Compound 83, [R-(R*,S*)]-N,N'-[Iminobis[2-hydroxy-1-(phenylmethyl)-3,1-propanediyl[bisbenzeneacetamide]
20 | 89 | CNC(=O)OC(C(=O)N[C@@H](Cc1ccccc1)[C@H](O)CNC[C@@H](O)[C@H](Cc1ccccc1)NC(=O)OC(C)(C)C)C(C)(C)C (stereo partly drawn) [Compound 287, [1S-[1R*,2S*(2S*,3R*)]]-[3-[[3-[[3,3-Dimethyl-2-[[(methylamino)carbonyl]oxy]-1-oxobutyl]amino]-2-hydroxy-4-phenylbutyl]amino]-2-hydroxy-1-(phenylmethyl)propyl]-carbamic acid, 1,1-dimethylethyl ester]
21 | 47 | CC(C)(C)OC(=O)N[C@@H](Cc1ccccc1)C(=O)N[C@@H](Cc1ccccc1)[C@H](O)CNC[C@@H](O)[C@H](Cc1ccccc1)NC(=O)OC(C)(C)C [Compound 56, [S-[1R*,2S*(2S*,3R*)]-N^2-[(1,1-Dimethylethoxy)carbonyl]-N-[3-[[3-[[(1,1-dimethlethoxy)carbonyl]amino]-2-hydroxy-4-phenylbutyl]-amino]-2-hydroxy-1-(phenylmethyl)propyl]-L-phenylalaninamide]
